# Biological target: T1, T1R umami taste receptor (Homo sapiens, UniProt Q7RTX0+Q7RTX1)
# T1 sequence (Q7RTX1 21-841): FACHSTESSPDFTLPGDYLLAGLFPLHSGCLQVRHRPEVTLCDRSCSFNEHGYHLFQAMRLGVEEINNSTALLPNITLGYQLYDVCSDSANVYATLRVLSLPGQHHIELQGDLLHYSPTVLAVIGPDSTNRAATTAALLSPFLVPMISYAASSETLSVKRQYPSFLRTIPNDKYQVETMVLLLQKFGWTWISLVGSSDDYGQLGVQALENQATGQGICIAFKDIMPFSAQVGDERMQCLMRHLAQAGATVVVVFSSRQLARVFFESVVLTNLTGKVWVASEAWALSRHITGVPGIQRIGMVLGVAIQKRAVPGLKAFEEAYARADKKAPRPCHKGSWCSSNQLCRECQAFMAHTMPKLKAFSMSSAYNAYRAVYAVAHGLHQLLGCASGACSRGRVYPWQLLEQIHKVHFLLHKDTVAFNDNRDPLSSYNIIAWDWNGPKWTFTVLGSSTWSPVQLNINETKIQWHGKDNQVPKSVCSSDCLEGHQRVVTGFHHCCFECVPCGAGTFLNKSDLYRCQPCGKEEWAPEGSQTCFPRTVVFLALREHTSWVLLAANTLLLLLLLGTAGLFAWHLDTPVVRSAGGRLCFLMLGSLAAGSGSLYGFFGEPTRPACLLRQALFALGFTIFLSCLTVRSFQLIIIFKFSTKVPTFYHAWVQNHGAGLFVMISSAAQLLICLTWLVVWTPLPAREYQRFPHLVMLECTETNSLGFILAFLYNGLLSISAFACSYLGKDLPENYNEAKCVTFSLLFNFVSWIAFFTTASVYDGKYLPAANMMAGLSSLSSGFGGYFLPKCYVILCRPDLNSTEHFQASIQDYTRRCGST
# T1 sequence (Q7RTX0 21-852): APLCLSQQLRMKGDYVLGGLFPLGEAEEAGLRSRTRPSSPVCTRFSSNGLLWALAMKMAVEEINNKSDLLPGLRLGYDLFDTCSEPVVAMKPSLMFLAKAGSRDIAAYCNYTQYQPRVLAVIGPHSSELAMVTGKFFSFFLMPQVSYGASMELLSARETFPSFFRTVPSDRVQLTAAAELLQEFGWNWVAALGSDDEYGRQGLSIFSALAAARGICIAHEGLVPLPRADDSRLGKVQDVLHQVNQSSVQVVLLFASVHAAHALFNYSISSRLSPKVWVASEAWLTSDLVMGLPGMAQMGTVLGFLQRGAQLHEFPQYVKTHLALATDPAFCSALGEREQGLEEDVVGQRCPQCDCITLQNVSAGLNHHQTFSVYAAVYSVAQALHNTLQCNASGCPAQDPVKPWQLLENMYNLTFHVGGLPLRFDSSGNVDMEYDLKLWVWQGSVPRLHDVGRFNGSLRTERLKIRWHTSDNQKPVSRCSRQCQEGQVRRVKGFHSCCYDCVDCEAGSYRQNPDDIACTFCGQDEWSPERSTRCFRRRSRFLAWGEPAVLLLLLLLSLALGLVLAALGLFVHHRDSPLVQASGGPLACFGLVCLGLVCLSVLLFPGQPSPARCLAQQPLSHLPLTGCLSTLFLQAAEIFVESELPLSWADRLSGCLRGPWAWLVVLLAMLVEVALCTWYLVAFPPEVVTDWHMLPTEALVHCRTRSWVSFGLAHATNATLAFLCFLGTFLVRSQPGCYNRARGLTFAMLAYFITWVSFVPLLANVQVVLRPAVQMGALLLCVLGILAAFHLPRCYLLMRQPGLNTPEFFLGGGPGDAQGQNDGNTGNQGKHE
# Test: in vitro cell-based assay, enhancement of MSG binding
# Conditions: cells that express the T1R umami taste receptor
# Procedure: Each of the compounds set forth in Table 2 were synthesized according to one of the general procedures set forth above in Example 1 or 2. Thereafter, the compounds were tested in an in vitro cell-based assay having cells that express the T1R umami taste receptor. Dose-binding curves were recorded and the EC50 was determined for enhancement of MSG binding. Table 2 sets forth the calculated EC50 values for certain tested compounds.
row,EC50,SMILES
1,> 50000 nM,O=C(NCCC[C@H](NC(=O)c1ccccc1)C(=O)O)c1ccccc1 [Compound 101]
2,30000 nM,COC(=O)[C@H](CCCNC(=O)c1ccccc1)NC(=O)c1ccccc1 [Compound 102]
3,2000 nM,CCOC(=O)[C@H](CCCNC(=O)c1ccccc1)NC(=O)c1ccccc1 [Compound 103]
4,14000 nM,CCOC(=O)[C@H](CCCNC(=O)c1ccc(C)c(C)c1)NC(=O)c1ccc(C)c(C)c1 [Compound 104]
5,35000 nM,CCOC(=O)[C@H](CCCNC(=O)c1ccc2c(c1)OCO2)NC(=O)c1ccc2c(c1)OCO2 [Compound 105]
6,3500 nM,C/C=C(\C)C(=O)NCCC[C@H](NC(=O)c1ccccc1)C(=O)OC [Compound 106]
7,8000 nM,C/C=C(\C)C(=O)NCCC[C@H](NC(=O)c1ccccc1)C(=O)OCC [Compound 107]
8,2500 nM,C/C=C(\C)C(=O)NCCC[C@H](NC(=O)c1ccc(C)cc1)C(=O)OC [Compound 108]
9,1500 nM,C/C=C(\C)C(=O)NCCC[C@H](NC(=O)c1ccc(C)cc1)C(=O)OCC [Compound 109]
10,700 nM,C/C=C(\C)C(=O)NCCC[C@H](NC(=O)c1ccc(OC)cc1)C(=O)OC [Compound 110]
11,400 nM,C/C=C(\C)C(=O)NCCC[C@H](NC(=O)c1ccc(OC)cc1)C(=O)OCC [Compound 111]
12,< 100 nM,C/C=C(\C)C(=O)NCCC[C@H](NC(=O)c1ccc(C)c(C)c1)C(=O)OC [Compound 112]
13,500 nM,C/C=C(\C)C(=O)NCCC[C@H](NC(=O)c1ccc(C)c(C)c1)C(=O)OCC [Compound 113]
14,400 nM,C/C=C(\C)C(=O)NCCC[C@H](NC(=O)c1cc(C)c(C)c(C)c1)C(=O)OC [Compound 114]
15,40 nM,C/C=C(\C)C(=O)NCCC[C@H](NC(=O)c1cc(C)c(C)c(C)c1)C(=O)OCC [Compound 115]
16,500 nM,C/C=C(\C)C(=O)NCCC[C@H](NC(=O)c1ccc2c(c1)OCO2)C(=O)OCC [Compound 121]
17,200 nM,C/C=C(\C)C(=O)NCCC[C@H](NC(=O)/C=C/c1ccccc1)C(=O)OC [Compound 122]
18,600 nM,C/C=C(\C)C(=O)NCCC[C@H](NC(=O)/C=C/c1ccccc1)C(=O)OCC [Compound 123]
19,500 nM,C/C=C(\C)C(=O)NCCC[C@H](NC(=O)/C=C/c1ccccc1OC)C(=O)OC [Compound 124]
20,640 nM,C/C=C(\C)C(=O)NCCC[C@H](NC(=O)/C=C/c1ccc(OC)cc1)C(=O)OC [Compound 128]
21,60 nM,C/C=C(\C)C(=O)NCCC[C@H](NC(=O)/C=C/c1ccc(OC)cc1)C(=O)OCC [Compound 129]
22,100 nM,C/C=C(\C)C(=O)NCCC[C@H](NC(=O)/C=C/c1ccc(OC)cc1OC)C(=O)OC [Compound 132]
23,400 nM,C/C=C(\C)C(=O)NCCC[C@H](NC(=O)/C=C/c1ccc(OC)cc1OC)C(=O)OCC [Compound 133]

# Reference: patent US20240156140A1, “AMIDE COMPOUNDS AND THEIR USE AS FLAVOR MODIFIERS” (Firmenich Incorporated, priority 2021, published 2024)
